According to patent publication US11006631B2, “Substituted pyrimidinyloxy pyridine derivatives as herbicides” (FMC Corporation, priority 2015, dated 2021):

Experiments:
Type in all cases: in vivo
[1] = test system: barnyardgrass (Echinochloa crus-galli); experiment: Test B flooded paddy test, barnyardgrass; conditions: Flood, 250 g ai/ha; scale of 0 to 100
Experimental: (§1) Plant species in the flooded paddy test selected from rice (Oryza sativa), sedge, umbrella (small-flower umbrella sedge, Cyperus difformis), ducksalad (Heteranthera limosa), and barnyardgrass (Echinochloa crus-galli) were grown to the 2-leaf stage for testing. At time of treatment, test pots were flooded to 3 cm above the soil surface, treated by application of test compounds directly to the paddy water, and then maintained at that water depth for the duration of the test. Treated plants and controls were maintained in a greenhouse for 13 to 15 days, after which time all species were compared to controls and visually evaluated. Plant response ratings, summarized in Table B, are based on a scale of 0 to 100 where 0 is no effect and 100 is complete control. A dash (-) response means no test result.

[2] = test system: ryegrass, Italian (Italian ryegrass, Lolium multiflorum); experiment: Test A postemergence, ryegrass, Italian; conditions: 0 to 100 scale
From the text: (§2) Seeds of plant species selected from bamyardgrass (Echinochloa crus-galli), kochia (Kochia scoparia), ragweed (common ragweed, Ambrosia elatior), ryegrass, Italian (Italian ryegrass, Lolium multiflorum), foxtail, giant (giant foxtail, Setaria faberii), pigweed (Amaranthus retroflexus), crabgrass, large (large crabgrass, Digitaria sanguinalis), momingglory (Ipomoea spp.), velvetleaf (Abutilon theophrasti), wheat (Triticum aestivum), and corn (Zea mays) were planted into a blend of loam soil and sand and treated preemergence with a directed soil spray using test chemicals formulated in a non-phytotoxic solvent mixture which included a surfactant. At the same time, plants selected from these crop and weed species and also blackgrass (Alopecurus myosuroides), and galium (catchweed bedstraw, Galium aparine) were planted in pots containing the same blend of loam soil and sand and treated with postemergence applications of test chemicals formulated in the same manner. Plants ranged in height from 2 to 10 cm and were in the one- to two-leaf stage for the postemergence treatment. Treated plants and untreated controls were maintained in a greenhouse for approximately 10 days, after which time all treated plants were compared to untreated controls and visually evaluated for injury. Plant response ratings, summarized in Table A, are based on a 0 to 100 scale where 0 is no effect and 100 is complete control. A dash (-) response means no test result.

[3] = test system: ragweed (common ragweed, Ambrosia elatior); experiment: Test A preemergence, ragweed; conditions: 0 to 100 scale
From the text: as §2

rice (Oryza sativa) = experiment: Test B flooded paddy test, rice; conditions: Flood, 250 g ai/ha; scale of 0 to 100
Experimental: as §1

[4] = test system: ragweed (common ragweed, Ambrosia elatior); experiment: Test A postemergence, ragweed; conditions: 0 to 100 scale
From the text: as §2

[5] = test system: sedge, umbrella (small-flower umbrella sedge, Cyperus difformis); experiment: Test B flooded paddy test, sedge, umbrella; conditions: Flood, 250 g ai/ha; scale of 0 to 100
Experimental: as §1

[6] = test system: blackgrass (Alopecurus myosuroides); experiment: Test A postemergence, blackgrass; conditions: 0 to 100 scale
From the text: as §2

[7] = test system: foxtail, giant (giant foxtail, Setaria faberii); experiment: Test A postemergence, foxtail, giant; conditions: 0 to 100 scale
From the text: as §2

[8] = test system: pigweed (Amaranthus retroflexus); experiment: Test A postemergence, pigweed; conditions: 0 to 100 scale
From the text: as §2

[9] = test system: barnyardgrass (Echinochloa crus-galli); experiment: Test A preemergence, barnyardgrass; conditions: 0 to 100 scale
From the text: as §2

[10] = test system: ducksalad (Heteranthera limosa); experiment: Test B flooded paddy test, ducksalad; conditions: Flood, 250 g ai/ha; scale of 0 to 100
Experimental: as §1

[11] = test system: galium (catchweed bedstraw, Galium aparine); experiment: Test A postemergence, galium; conditions: 0 to 100 scale
From the text: as §2

[12] = test system: ryegrass, Italian (Italian ryegrass, Lolium multiflorum); experiment: Test A preemergence, ryegrass, Italian; conditions: 0 to 100 scale
From the text: as §2

kochia (Kochia scoparia) [13] = experiment: Test A preemergence, kochia; conditions: 0 to 100 scale
From the text: as §2

corn (Zea mays) = experiment: Test A postemergence, corn; conditions: 0 to 100 scale
From the text: as §2

kochia (Kochia scoparia) [14] = experiment: Test A postemergence, kochia; conditions: 0 to 100 scale
From the text: as §2

[15] = test system: foxtail, giant (giant foxtail, Setaria faberii); experiment: Test A preemergence, foxtail, giant; conditions: 0 to 100 scale
From the text: as §2

[16] = test system: pigweed (Amaranthus retroflexus); experiment: Test A preemergence, pigweed; conditions: 0 to 100 scale
From the text: as §2

[17] = test system: wheat (Triticum aestivum); experiment: Test A postemergence, wheat; conditions: 0 to 100 scale
From the text: as §2

[18] = test system: barnyardgrass (Echinochloa crus-galli); experiment: Test A postemergence, barnyardgrass; conditions: 0 to 100 scale
From the text: as §2

[O-][n+]1cccc(Oc2ncc(F)cn2)c1-n1cc(Cl)cn1 [Compound 9]
20: Plant response rating, Pigweed ([16]; 125 g ai/ha)
10: Plant response rating, Ragweed ([4]; 31 g ai/ha) | Plant response rating, Galium ([11]; 31 g ai/ha) | Plant response rating, Kochia (kochia (Kochia scoparia) [14]; 31 g ai/ha)
0: Plant response rating, Barnyardgrass [1] | Plant response rating, Ryegrass, Italian ([2]; 31 g ai/ha) | Plant response rating, Ryegrass, Italian ([2]; 125 g ai/ha) | Plant response rating, Ragweed ([3]; 31 g ai/ha) | Plant response rating, Ragweed ([3]; 125 g ai/ha) | Plant response rating, Rice (rice (Oryza sativa)) | Plant response rating, Sedge, Umbrella [5] | Plant response rating, Blackgrass ([6]; 31 g ai/ha) | Plant response rating, Blackgrass ([6]; 125 g ai/ha) | Plant response rating, Foxtail, Giant ([7]; 31 g ai/ha) | Plant response rating, Foxtail, Giant ([7]; 125 g ai/ha) | Plant response rating, Barnyardgrass ([9]; 31 g ai/ha) | Plant response rating, Barnyardgrass ([9]; 125 g ai/ha) | Plant response rating, Ducksalad [10] | Plant response rating, Ryegrass, Italian ([12]; 31 g ai/ha) | Plant response rating, Ryegrass, Italian ([12]; 125 g ai/ha) | Plant response rating, Kochia (kochia (Kochia scoparia) [13]; 31 g ai/ha) | Plant response rating, Kochia (kochia (Kochia scoparia) [13]; 125 g ai/ha) | Plant response rating, Corn (corn (Zea mays); 31 g ai/ha) | Plant response rating, Corn (corn (Zea mays); 125 g ai/ha) | Plant response rating, Foxtail, Giant ([15]; 31 g ai/ha) | Plant response rating, Foxtail, Giant ([15]; 125 g ai/ha) | Plant response rating, Pigweed ([16]; 31 g ai/ha) | Plant response rating, Wheat ([17]; 31 g ai/ha) | Plant response rating, Wheat ([17]; 125 g ai/ha) | Plant response rating, Barnyardgrass ([18]; 31 g ai/ha) | Plant response rating, Barnyardgrass ([18]; 125 g ai/ha)
50: Plant response rating, Pigweed ([8]; 125 g ai/ha) | Plant response rating, Kochia (kochia (Kochia scoparia) [14]; 125 g ai/ha)
30: Plant response rating, Ragweed ([4]; 125 g ai/ha) | Plant response rating, Pigweed ([8]; 31 g ai/ha) | Plant response rating, Galium ([11]; 125 g ai/ha)

Clc1ccc(-c2cccnc2Oc2ncc(Cl)cn2)nc1 [Compound 12, 5-chloro-2-[(5-chloro[2,3′-bipyridin]-2′-yl)oxy]pyrimidine]
40: Plant response rating, Kochia (kochia (Kochia scoparia) [13]; 125 g ai/ha) | Plant response rating, Kochia (kochia (Kochia scoparia) [14]; 125 g ai/ha)
10: Plant response rating, Ragweed ([4]; 125 g ai/ha) | Plant response rating, Pigweed ([8]; 31 g ai/ha) | Plant response rating, Galium ([11]; 31 g ai/ha) | Plant response rating, Galium ([11]; 125 g ai/ha) | Plant response rating, Corn (corn (Zea mays); 125 g ai/ha)
60: Plant response rating, Pigweed ([16]; 125 g ai/ha)
0: Plant response rating, Barnyardgrass [1] | Plant response rating, Ryegrass, Italian ([2]; 31 g ai/ha) | Plant response rating, Ryegrass, Italian ([2]; 125 g ai/ha) | Plant response rating, Ragweed ([3]; 31 g ai/ha) | Plant response rating, Ragweed ([3]; 125 g ai/ha) | Plant response rating, Ragweed ([4]; 31 g ai/ha) | Plant response rating, Blackgrass ([6]; 31 g ai/ha) | Plant response rating, Blackgrass ([6]; 125 g ai/ha) | Plant response rating, Foxtail, Giant ([7]; 31 g ai/ha) | Plant response rating, Foxtail, Giant ([7]; 125 g ai/ha) | Plant response rating, Barnyardgrass ([9]; 31 g ai/ha) | Plant response rating, Barnyardgrass ([9]; 125 g ai/ha) | Plant response rating, Ryegrass, Italian ([12]; 31 g ai/ha) | Plant response rating, Ryegrass, Italian ([12]; 125 g ai/ha) | Plant response rating, Kochia (kochia (Kochia scoparia) [13]; 31 g ai/ha) | Plant response rating, Corn (corn (Zea mays); 31 g ai/ha) | Plant response rating, Kochia (kochia (Kochia scoparia) [14]; 31 g ai/ha) | Plant response rating, Foxtail, Giant ([15]; 31 g ai/ha) | Plant response rating, Foxtail, Giant ([15]; 125 g ai/ha) | Plant response rating, Pigweed ([16]; 31 g ai/ha) | Plant response rating, Wheat ([17]; 31 g ai/ha) | Plant response rating, Wheat ([17]; 125 g ai/ha) | Plant response rating, Barnyardgrass ([18]; 31 g ai/ha)
30: Plant response rating, Sedge, Umbrella [5] | Plant response rating, Pigweed ([8]; 125 g ai/ha) | Plant response rating, Ducksalad [10] | Plant response rating, Barnyardgrass ([18]; 125 g ai/ha)
20: Plant response rating, Rice (rice (Oryza sativa))

Fc1cnc(Oc2cccnc2-c2cc(C(F)F)no2)nc1 [Compound 7]
0: Plant response rating, Barnyardgrass [1] | Plant response rating, Ryegrass, Italian ([2]; 31 g ai/ha) | Plant response rating, Ryegrass, Italian ([2]; 125 g ai/ha) | Plant response rating, Ragweed ([3]; 31 g ai/ha) | Plant response rating, Rice (rice (Oryza sativa)) | Plant response rating, Ragweed ([4]; 31 g ai/ha) | Plant response rating, Sedge, Umbrella [5] | Plant response rating, Blackgrass ([6]; 31 g ai/ha) | Plant response rating, Blackgrass ([6]; 125 g ai/ha) | Plant response rating, Foxtail, Giant ([7]; 31 g ai/ha) | Plant response rating, Foxtail, Giant ([7]; 125 g ai/ha) | Plant response rating, Barnyardgrass ([9]; 31 g ai/ha) | Plant response rating, Ryegrass, Italian ([12]; 31 g ai/ha) | Plant response rating, Ryegrass, Italian ([12]; 125 g ai/ha) | Plant response rating, Corn (corn (Zea mays); 31 g ai/ha) | Plant response rating, Corn (corn (Zea mays); 125 g ai/ha) | Plant response rating, Foxtail, Giant ([15]; 31 g ai/ha) | Plant response rating, Wheat ([17]; 31 g ai/ha) | Plant response rating, Barnyardgrass ([18]; 31 g ai/ha) | Plant response rating, Barnyardgrass ([18]; 125 g ai/ha)
70: Plant response rating, Pigweed ([8]; 125 g ai/ha) | Plant response rating, Kochia (kochia (Kochia scoparia) [13]; 125 g ai/ha) | Plant response rating, Kochia (kochia (Kochia scoparia) [14]; 31 g ai/ha) | Plant response rating, Pigweed ([16]; 31 g ai/ha)
30: Plant response rating, Ragweed ([3]; 125 g ai/ha)
90: Plant response rating, Kochia (kochia (Kochia scoparia) [14]; 125 g ai/ha)
100: Plant response rating, Pigweed ([16]; 125 g ai/ha)
20: Plant response rating, Pigweed ([8]; 31 g ai/ha) | Plant response rating, Barnyardgrass ([9]; 125 g ai/ha) | Plant response rating, Galium ([11]; 31 g ai/ha) | Plant response rating, Kochia (kochia (Kochia scoparia) [13]; 31 g ai/ha) | Plant response rating, Foxtail, Giant ([15]; 125 g ai/ha) | Plant response rating, Wheat ([17]; 125 g ai/ha)
50: Plant response rating, Ducksalad [10] | Plant response rating, Galium ([11]; 125 g ai/ha)
10: Plant response rating, Ragweed ([4]; 125 g ai/ha)

[O-][n+]1cccc(Oc2ncc(Cl)cn2)c1-n1cc(Br)cn1 [Compound 11]
20: Plant response rating, Ragweed ([4]; 1000 g ai/ha)
0: Plant response rating, Ryegrass, Italian ([2]; 1000 g ai/ha) | Plant response rating, Foxtail, Giant ([7]; 1000 g ai/ha) | Plant response rating, Barnyardgrass ([9]; 1000 g ai/ha) | Plant response rating, Ryegrass, Italian ([12]; 1000 g ai/ha) | Plant response rating, Corn (corn (Zea mays); 1000 g ai/ha) | Plant response rating, Foxtail, Giant ([15]; 1000 g ai/ha) | Plant response rating, Wheat ([17]; 1000 g ai/ha) | Plant response rating, Barnyardgrass ([18]; 1000 g ai/ha)
90: Plant response rating, Pigweed ([8]; 1000 g ai/ha)
30: Plant response rating, Ragweed ([3]; 1000 g ai/ha) | Plant response rating, Kochia (kochia (Kochia scoparia) [13]; 1000 g ai/ha)
60: Plant response rating, Kochia (kochia (Kochia scoparia) [14]; 1000 g ai/ha)
40: Plant response rating, Galium ([11]; 1000 g ai/ha)
100: Plant response rating, Pigweed ([16]; 1000 g ai/ha)
10: Plant response rating, Blackgrass ([6]; 1000 g ai/ha)
